# Laboratory results as given in patent publication US20060069132A1, “Azolecarboxamide herbicides” (priority 2004, published 2006).
# Tests used:
# [1] = system: pigweed; test: Test B pre-/postemergence herbicide test; assay type: in vivo, Amaranthus retroflexus
# How it was run: (§1)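 Greenhouse pot assay with simultaneous preemergence (treated seed) and postemergence (2–18 cm seedlings) applications of surfactant-containing, non-phytotoxic solvent formulations. Response scored visually 13–15 days later on a 0–100 scale, 100 meaning complete control.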
# [2] = system: ducksalad; test: Test B flooded paddy test; assay type: in vivo, Heteranthera limosa; settings: 1000 g ai/ha, visual rating, scale 0 to 100 (0 no effect, 100 complete control), 13 to 15 days
# How it was run: (§2)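 Postemergence plants were sprayed with formulated test chemicals at 2 to 18 cm height (1- to 4-leaf stage); paddy species were grown to the 2-leaf stage. After 13 to 15 days in a greenhouse, injury was rated visually against untreated controls on a 0–100 scale (0 = no effect, 100 = complete control).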
# [3] = system: giant foxtail; test: Test A pre-/postemergence herbicide test; assay type: in vivo, Setaria faberi; settings: for Plant response rating, Foxtail, Giant: Postemergence; for Foxtail, Giant plant response rating: Preemergence
# How it was run: (§3)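 Greenhouse injury scoring (0–100, complete control = 100) at approximately ten days follows simultaneous pre- and postemergence application. Soil received a directed spray after seeding; seedlings of 2–10 cm at the one- to two-leaf stage were sprayed to runoff.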
# [4] = system: corn; test: Test B pre-/postemergence herbicide test; assay type: in vivo, Zea mays; settings: for Corn plant response rating: Preemergence, 500 g ai/ha, scale 0 to 100
# How it was run: as §1
# [5] = system: wheat; test: Test B postemergence herbicide test; assay type: in vivo, Triticum aestivum; design: key to Wheat plant response rating: 0 = no effect, 100 = complete control; settings: scale 0 (no effect) to 100 (complete control); for Plant response rating, Wheat: Postemergence, 500 g ai/ha, visual rating after 13 to 15 days
# How it was run: (§4)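 Each value is a visual 0–100 response rating taken against controls 13 to 15 days after treatment in the greenhouse. Plants received formulated chemical postemergence at the 1- to 4-leaf stage or, in flooded paddy, at the 2-leaf stage.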
# [6] = system: redroot pigweed; test: Test A pre-/postemergence herbicide test; assay type: in vivo, Amaranthus retroflexus; settings: for Plant response rating, Pigweed: Postemergence; for Pigweed plant response rating: Preemergence
# How it was run: as §3
# [7] = system: large crabgrass; test: Test A pre-/postemergence herbicide test; assay type: in vivo, Digitaria sanguinalis; settings: for Plant response rating, Crabgrass, Large: Postemergence; for Crabgrass, Large plant response rating: Preemergence
# How it was run: as §3
# [8] = system: blackgrass; test: Test B postemergence herbicide test; assay type: in vivo, Alopecurus myosuroides; settings: scale 0 (no effect) to 100 (complete control); for Blackgrass plant response rating: 125 g ai/ha; for Plant response rating, Blackgrass: 500 g ai/ha, visual rating after 13 to 15 days
# How it was run: as §2
# [9] = system: small flower umbrella sedge; test: Test B flooded paddy test; assay type: in vivo, Cyperus difformis; settings: 1000 g ai/ha, visual rating, scale 0 to 100 (0 no effect, 100 complete control), 13 to 15 days
# How it was run: as §2
# [10] = system: cocklebur; test: Test B pre-/postemergence herbicide test; assay type: in vivo, Xanthium strumarium
# How it was run: (§5)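 Seeds were planted and treated preemergence with compounds formulated in a non-phytotoxic solvent mixture containing surfactant, while plants at the 1- to 4-leaf stage (2 to 18 cm) received postemergence sprays. Flooded paddy plants were grown to the 2-leaf stage. After 13 to 15 days in a greenhouse, injury was visually rated 0–100 against untreated controls.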
# [11] = system: lambsquarters; test: Test B pre-/postemergence herbicide test; assay type: in vivo, Chenopodium album
# How it was run: as §1
# [12] = system: barnyardgrass; test: Test A pre-/postemergence herbicide test; assay type: in vivo, Echinochloa crus-galli; settings: for Plant response rating, Barnyardgrass: Postemergence; for Barnyardgrass plant response rating: Preemergence
# How it was run: as §3
# [13] = system: barnyardgrass; test: Test B pre-/postemergence herbicide test; assay type: in vivo, Echinochloa crus-galli
# How it was run: as §5
# [14] = system: morningglory; test: Test B pre-/postemergence herbicide test; assay type: in vivo, Ipomoea coccinea
# How it was run: as §5
# [15] = system: morningglory; test: Test A pre-/postemergence herbicide test; assay type: in vivo, Ipomoea spp.; settings: for Plant response rating, Morningglory: Postemergence; for Morningglory plant response rating: Preemergence
# How it was run: as §3
# [16] = system: large crabgrass; test: Test B pre-/postemergence herbicide test; assay type: in vivo, Digitaria sanguinalis
# How it was run: as §1
# [17] = system: giant foxtail; test: Test B pre-/postemergence herbicide test; assay type: in vivo, Setaria faberi
# How it was run: as §1
# [18] = system: barnyardgrass; test: Test B flooded paddy test; assay type: in vivo, Echinochloa crus-galli; settings: 1000 g ai/ha, visual rating, scale 0 to 100 (0 no effect, 100 complete control), 13 to 15 days
# How it was run: as §2
# [19] = system: velvetleaf; test: Test A pre-/postemergence herbicide test; assay type: in vivo, Abutilon theophrasti; settings: for Plant response rating, Velvetleaf: Postemergence; for Velvetleaf plant response rating: Preemergence
# How it was run: as §3
# [20] = system: Surinam grass; test: Test B pre-/postemergence herbicide test; assay type: in vivo, Urochloa decumbens
# How it was run: as §1
# [21] = system: velvetleaf; test: Test B pre-/postemergence herbicide test; assay type: in vivo, Abutilon theophrasti
# How it was run: as §1
# [22] = system: wild oat; test: Test B postemergence herbicide test; assay type: in vivo, Avena fatua; settings: scale 0 (no effect) to 100 (complete control); for Oat, Wild plant response rating: 125 g ai/ha; for Plant response rating, Oat, Wild: 500 g ai/ha, visual rating after 13 to 15 days
# How it was run: as §4
# [23] = system: rice; test: Test B flooded paddy test; assay type: in vivo, Oryza sativa; settings: 1000 g ai/ha, visual rating, scale 0 to 100 (0 no effect, 100 complete control), 13 to 15 days
# How it was run: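 Greenhouse test; postemergence application to plants at 1–4 leaves (2–18 cm); paddy species at 2 leaves; evaluated visually vs controls at 13–15 days; scale 0–100 (100 = complete control).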
# [24] = Postemergence, 500 g ai/ha, visual rating after 13 to 15 days, scale 0 (no effect) to 100 (complete control)
# [25] = Preemergence, 500 g ai/ha, scale 0 to 100
# [26] = preemergence, 125 g ai/ha, 0 to 100 scale, 0 is no effect, 100 is complete control
# [27] = 500 g ai/ha, 0 to 100 scale, 0 no effect, 100 complete control
# [28] = 2000 g ai/ha, 0 to 100 scale, 0 no effect, 100 complete control
# [29] = 500 g ai/ha, visual rating, 0 to 100 scale (0 no effect, 100 complete control)
# [30] = Postemergence, 125 g ai/ha, scale 0 (no effect) to 100 (complete control)
# [31] = postemergence, 125 g ai/ha, visual rating, scale 0 (no effect) to 100 (complete control)
compound,measurement,setting,value
CCCCn1nc(C(C)(C)C)cc1C(=O)Nc1cccc(C(=O)N(CC)CC)c1 [Compound 40],"Plant response rating, Pigweed",[1]; [24],60
same,Pigweed plant response rating,[1]; [25],60
same,"Plant response rating, Pigweed",[1]; [26],30
same,Ducksalad plant response rating,[2],0
same,"Plant response rating, Foxtail, Giant",[3]; [27],0
same,"Plant response rating, Foxtail, Giant",[3]; [28],0
same,"Foxtail, Giant plant response rating",[3]; [29],0
same,"Foxtail, Giant plant response rating",[3]; [28],5
same,Corn plant response rating,[4],0
same,"Plant response rating, Wheat",[5],30
same,"Plant response rating, Pigweed",[6]; [27],0
same,"Plant response rating, Pigweed",[6]; [28],0
same,Pigweed plant response rating,[6]; [29],0
same,Pigweed plant response rating,[6]; [28],15
same,"Plant response rating, Crabgrass, Large",[7]; [27],15
same,"Plant response rating, Crabgrass, Large",[7]; [28],0
same,"Crabgrass, Large plant response rating",[7]; [29],5
same,"Crabgrass, Large plant response rating",[7]; [28],15
same,Blackgrass plant response rating,[8]; Postemergence,10
same,"Plant response rating, Blackgrass",[8]; Postemergence,20
same,"Sedge, Umbrella plant response rating",[9],30
same,Cocklebur plant response rating,[10]; [30],10
same,"Plant response rating, Cocklebur",[10]; [24],50
same,Cocklebur plant response rating,[10]; [25],0
same,Lambsquarters plant response rating,[11]; [30],40
same,"Plant response rating, Lambsquarters",[11]; [24],70
same,Lambsquarters plant response rating,[11]; [25],80
same,"Plant response rating, Lambsquarters",[11]; [26],40
same,"Plant response rating, Barnyardgrass",[12]; [27],0
same,"Plant response rating, Barnyardgrass",[12]; [28],0
same,Barnyardgrass plant response rating,[12]; [29],0
same,Barnyardgrass plant response rating,[12]; [28],15
same,Barnyardgrass plant response rating,[13]; [30],10
same,"Plant response rating, Barnyardgrass",[13]; [24],10
same,Barnyardgrass plant response rating,[13]; [25],40
same,Morningglory plant response rating,[14]; [25],10
same,"Plant response rating, Morningglory",[15]; [27],0
same,"Plant response rating, Morningglory",[15]; [28],0
same,Morningglory plant response rating,[15]; [29],5
same,Morningglory plant response rating,[15]; [28],10
same,"Crabgrass, Large plant response rating",[16]; [30],10
same,"Plant response rating, Crabgrass, Large",[16]; [24],20
same,"Crabgrass, Large plant response rating",[16]; [25],70
same,"Foxtail, Giant plant response rating",[17]; [30],0
same,"Plant response rating, Foxtail, Giant",[17]; [24],20
same,"Foxtail, Giant plant response rating",[17]; [25],10
same,"Plant response rating, Foxtail, Giant",[17]; [26],0
same,Barnyardgrass plant response rating,[18],0
same,"Plant response rating, Velvetleaf",[19]; [27],0
same,"Plant response rating, Velvetleaf",[19]; [28],0
same,Velvetleaf plant response rating,[19]; [29],5
same,Velvetleaf plant response rating,[19]; [28],15
same,"Plant response rating, Surinam Grass",[20]; [24],20
same,Surinam Grass plant response rating,[20]; [25],10
same,"Plant response rating, Surinam Grass",[20]; [26],0
same,"Plant response rating, Velvetleaf",[21]; [24],20
same,Velvetleaf plant response rating,[21]; [25],10
same,"Plant response rating, Velvetleaf",[21]; [26],0
same,"Oat, Wild plant response rating",[22]; Postemergence,0
same,"Plant response rating, Oat, Wild",[22]; Postemergence,10
same,Rice plant response rating,[23],0
C=Cn1nc(C(C)(C)C)cc1C(=O)Nc1cccc(C(=O)OCC)c1 [Compound 78],"Plant response rating, Pigweed",[1]; [24],90
same,Pigweed plant response rating,[1]; [31],80
same,"Plant response rating, Pigweed",[1]; [26],0
same,Ducksalad plant response rating,[2],30
same,"Plant response rating, Foxtail, Giant",[3]; [27],20
same,"Plant response rating, Foxtail, Giant",[3]; [28],60
same,"Foxtail, Giant plant response rating",[3]; [29],55
same,"Foxtail, Giant plant response rating",[3]; [28],70
same,Corn plant response rating,[4],0
same,"Plant response rating, Corn",[4]; [26],0
same,"Plant response rating, Wheat",[5],30
same,Wheat plant response rating,"[5]; postemergence, 125 g ai/ha, visual rating",30
same,"Plant response rating, Pigweed",[6]; [27],85
same,"Plant response rating, Pigweed",[6]; [28],90
same,Pigweed plant response rating,[6]; [29],80
same,Pigweed plant response rating,[6]; [28],90
same,"Plant response rating, Crabgrass, Large",[7]; [27],20
same,"Plant response rating, Crabgrass, Large",[7]; [28],35
same,"Crabgrass, Large plant response rating",[7]; [29],60
same,"Crabgrass, Large plant response rating",[7]; [28],90
same,"Plant response rating, Blackgrass",[8]; Postemergence,30
same,Blackgrass plant response rating,"[8]; postemergence, visual rating",20
same,"Sedge, Umbrella plant response rating",[9],80
same,"Plant response rating, Cocklebur",[10]; [24],100
same,Cocklebur plant response rating,[10]; [25],0
same,Cocklebur plant response rating,[10]; [31],80
same,"Plant response rating, Cocklebur",[10]; [26],0
same,"Plant response rating, Lambsquarters",[11]; [24],80
same,Lambsquarters plant response rating,[11]; [31],70
same,"Plant response rating, Lambsquarters",[11]; [26],0
same,"Plant response rating, Barnyardgrass",[12]; [27],30
same,"Plant response rating, Barnyardgrass",[12]; [28],40
same,Barnyardgrass plant response rating,[12]; [29],20
same,Barnyardgrass plant response rating,[12]; [28],45
same,"Plant response rating, Barnyardgrass",[13]; [24],30
same,Barnyardgrass plant response rating,[13]; [25],0
same,Barnyardgrass plant response rating,[13]; [31],30
same,"Plant response rating, Barnyardgrass",[13]; [26],0
same,"Plant response rating, Morningglory",[14]; [26],0
same,"Plant response rating, Morningglory",[15]; [27],15
same,"Plant response rating, Morningglory",[15]; [28],25
same,Morningglory plant response rating,[15]; [29],25
same,Morningglory plant response rating,[15]; [28],40
same,"Plant response rating, Crabgrass, Large",[16]; [24],30
same,"Crabgrass, Large plant response rating",[16]; [25],10
same,"Crabgrass, Large plant response rating",[16]; [31],20
same,"Plant response rating, Crabgrass, Large",[16]; [26],0
same,"Plant response rating, Foxtail, Giant",[17]; [24],30
same,"Foxtail, Giant plant response rating",[17]; [25],30
same,"Foxtail, Giant plant response rating",[17]; [31],30
same,"Plant response rating, Foxtail, Giant",[17]; [26],10
same,Barnyardgrass plant response rating,[18],30
same,"Plant response rating, Velvetleaf",[19]; [28],50
same,Velvetleaf plant response rating,[19]; [29],30
same,Velvetleaf plant response rating,"[19]; 2000 g ai/ha, visual rating, 0 to 100 scale (0 no effect, 100 complete control)",50
same,"Plant response rating, Surinam Grass",[20]; [24],20
same,Surinam Grass plant response rating,[20]; [31],20
same,"Plant response rating, Surinam Grass",[20]; [26],0
same,"Plant response rating, Velvetleaf",[21]; [24],80
same,Velvetleaf plant response rating,[21]; [31],70
same,"Plant response rating, Velvetleaf",[21]; [26],10
same,"Plant response rating, Oat, Wild",[22]; Postemergence,20
same,"Oat, Wild plant response rating","[22]; postemergence, visual rating",10
same,Rice plant response rating,[23],40
